# Key:
# Conditions in all cases: incubation time: 72 h
# HCC1937 [1] = assay: normalised response (% of control), CellTiter-Glo; higher = more viable cells (100 = DMSO, 0 = benzethonium chloride kill control)
# How it was run: (§1)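 Breast cancer cell lines in 20 µl suspension were added to 384-well plates containing compound at 5 concentrations, spaced in 10-fold steps across a 10,000-fold range chosen for each compound, and incubated for 72 h. CellTox Green fluorescence was read at 485/520 nm, followed by CellTiter-Glo luminescence after 10 min at room temperature. Signals on each plate were normalised so that 0.1 % DMSO equals 100 and a positive kill control equals 0. Every value in the table is the normalised signal at one concentration of the series.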
# MDA-MB-468 [2] = assay: as above
# How it was run: as §1
# MCF-10A = assay: as above
# How it was run: as §1
# CAL-148 [3] = assay: as above
# How it was run: as §1
# HCC1143 [4] = assay: as above
# How it was run: as §1
# HDQ-P1 [5] = assay: as above
# How it was run: as §1
# SK-BR-3 [6] = assay: as above
# How it was run: as §1
# MFM-223 [7] = assay: as above
# How it was run: as §1
# Hs578T [8] = assay: as above
# How it was run: as §1
# BT-549 [9] = assay: as above
# How it was run: as §1
# DU-4475 [10] = assay: as above
# How it was run: as §1
# BT-474 [11] = assay: as above
# How it was run: as §1
# CAL-120 [12] = assay: as above
# How it was run: as §1
# CAL-51 [13] = assay: as above
# How it was run: as §1
# MDA-MB-453 [14] = assay: as above
# How it was run: as §1
# CAL-85-1 [15] = assay: as above
# How it was run: as §1
# MDA-MB-231 [16] = assay: as above
# How it was run: as §1
# MDA-MB-436 [17] = assay: as above
# How it was run: as §1
# HCC1599 [18] = assay: as above
# How it was run: as §1
# HCC1937 [19] = assay: normalised viability (% of control), CellTiter-Blue; higher = more viable cells (100 = DMSO, 0 = benzethonium chloride kill control)
# Method: (§2)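 DSRT, CellTiter-Blue viability, 72 h incubation. Signal is normalised to DMSO and benzethonium chloride controls. Value is the normalised response at dose 1.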
# MDA-MB-468 [20] = assay: as above
# Method: as §2
# CAL-148 [21] = assay: as above
# Method: as §2
# HCC1143 [22] = assay: as above
# Method: as §2
# HDQ-P1 [23] = assay: as above
# Method: as §2
# SK-BR-3 [24] = assay: as above
# Method: as §2
# MFM-223 [25] = assay: as above
# Method: as §2
# Hs578T [26] = assay: as above
# Method: as §2
# BT-549 [27] = assay: as above
# Method: as §2
# DU-4475 [28] = assay: as above
# Method: as §2
# BT-474 [29] = assay: as above
# Method: as §2
# CAL-120 [30] = assay: as above
# Method: as §2
# CAL-51 [31] = assay: as above
# Method: as §2
# MDA-MB-453 [32] = assay: as above
# Method: as §2
# CAL-85-1 [33] = assay: as above
# Method: as §2
# MDA-MB-231 [34] = assay: as above
# Method: as §2
# MDA-MB-436 [35] = assay: as above
# Method: as §2
# HCC1599 [36] = assay: as above
# Method: as §2
# CAL-148 [37] = assay: normalised viability (% of control), CellTiter-Blue; higher = more viable cells (about 100 = DMSO control)
# Method: (§3)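 DSRT, CellTiter-Blue viability, 72 h incubation. Signal is normalised to DMSO and benzethonium chloride controls. Value is the normalised response at dose 9.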
# HDQ-P1 [38] = assay: as above
# Method: as §3
# DU-4475 [39] = assay: as above
# Method: as §3
# CAL-51 [40] = assay: as above
# Method: as §3
# MDA-MB-453 [41] = assay: as above
# Method: as §3
# CAL-85-1 [42] = assay: as above
# Method: as §3
Structure (SMILES),normalised response (HCC1937 [1]),normalised response (MDA-MB-468 [2]),normalised viability (HCC1937 [19]),normalised viability (MDA-MB-468 [20]),normalised viability (CAL-148 [21]),normalised viability (HCC1143 [22]),normalised viability (HDQ-P1 [23]),normalised viability (SK-BR-3 [24]),normalised viability (MFM-223 [25]),normalised viability (Hs578T [26]),normalised viability (BT-549 [27]),normalised viability (DU-4475 [28]),normalised viability (BT-474 [29]),normalised viability (CAL-120 [30]),normalised viability (CAL-51 [31]),normalised viability (MDA-MB-453 [32]),normalised viability (CAL-85-1 [33]),normalised viability (MDA-MB-231 [34]),normalised viability (MDA-MB-436 [35]),normalised viability (HCC1599 [36]),also measured
CN1CCC(COc2cnc(-c3cccc(Cn4nc(-c5cccc(C#N)c5)ccc4=O)c3)nc2)CC1 (1 nM),103%,92.3%,86.7%,92.5%,89.6%,110%,77.4%,96.4%,101%,98.4%,93.2%,100%,83.7%,102%,90.5%,104%,99.6%,77.3%,98.7%,110%,normalised response (MCF-10A): 93.9%; normalised response (CAL-148 [3]): 97.8%; normalised response (HCC1143 [4]): 102%; normalised response (HDQ-P1 [5]): 95.3%; normalised response (SK-BR-3 [6]): 71%; normalised response (MFM-223 [7]): 93.6%; normalised response (Hs578T [8]): 96.7%; normalised response (BT-549 [9]): 93.5%; normalised response (DU-4475 [10]): 100%; normalised response (BT-474 [11]): 101%; normalised response (CAL-120 [12]): 99.1%; normalised response (CAL-51 [13]): 127%; normalised response (MDA-MB-453 [14]): 91.3%; normalised response (CAL-85-1 [15]): 90.4%; normalised response (MDA-MB-231 [16]): 95.1%; normalised response (MDA-MB-436 [17]): 91.4%; normalised response (HCC1599 [18]): 112%
CN1CCC(COc2cnc(-c3cccc(Cn4nc(-c5cccc(C#N)c5)ccc4=O)c3)nc2)CC1 (10000 nM),–,–,–,–,–,–,–,–,–,–,–,–,–,–,–,–,–,–,–,–,normalised viability (CAL-148 [37]): 25.8%; normalised viability (HDQ-P1 [38]): 4.94%; normalised viability (DU-4475 [39]): 2.2%; normalised viability (CAL-51 [40]): 6.25%; normalised viability (MDA-MB-453 [41]): 3.23%; normalised viability (CAL-85-1 [42]): 6.29%
CN(C)C/C=C/C(=O)Nc1cc2c(Nc3ccc(F)c(Cl)c3)ncnc2cc1O[C@H]1CCOC1 [Afatinib] (1 nM),97.2%,109%,85.4%,107%,106%,83.8%,74.3%,89.2%,93.2%,102%,111%,96.4%,85.9%,69.7%,109%,101%,82%,92.4%,88.4%,84.5%,normalised response (MCF-10A): 92.7%; normalised response (CAL-148 [3]): 90.3%; normalised response (HCC1143 [4]): 106%; normalised response (HDQ-P1 [5]): 98.4%; normalised response (SK-BR-3 [6]): 98.9%; normalised response (MFM-223 [7]): 97.8%; normalised response (Hs578T [8]): 96.5%; normalised response (BT-549 [9]): 96.9%; normalised response (DU-4475 [10]): 109%; normalised response (BT-474 [11]): 97.5%; normalised response (CAL-120 [12]): 94.4%; normalised response (CAL-51 [13]): 116%; normalised response (MDA-MB-453 [14]): 112%; normalised response (CAL-85-1 [15]): 108%; normalised response (MDA-MB-231 [16]): 97.7%; normalised response (MDA-MB-436 [17]): 105%; normalised response (HCC1599 [18]): 104%
CN(C)C/C=C/C(=O)Nc1cc2c(Nc3ccc(F)c(Cl)c3)ncnc2cc1O[C@H]1CCOC1 [Afatinib] (10000 nM),–,–,–,–,–,–,–,–,–,–,–,–,–,–,–,–,–,–,–,–,normalised viability (CAL-148 [37]): 40.7%; normalised viability (HDQ-P1 [38]): 4.6%; normalised viability (DU-4475 [39]): 67.8%; normalised viability (CAL-51 [40]): 50.6%; normalised viability (MDA-MB-453 [41]): 14.4%; normalised viability (CAL-85-1 [42]): 13.6%
CN1CC[C@H](c2c(O)cc(O)c3c(=O)cc(-c4ccccc4Cl)oc23)[C@H](O)C1 [Alvocidib] (1 nM),103%,106%,96.4%,113%,104%,78.5%,79.7%,97.4%,88.3%,73.7%,104%,101%,92.3%,75%,102%,95.8%,83.5%,98.1%,94.3%,99.6%,normalised response (MCF-10A): 95.2%; normalised response (CAL-148 [3]): 104%; normalised response (HCC1143 [4]): 96.5%; normalised response (HDQ-P1 [5]): 94.9%; normalised response (SK-BR-3 [6]): 112%; normalised response (MFM-223 [7]): 98.2%; normalised response (Hs578T [8]): 98.1%; normalised response (BT-549 [9]): 106%; normalised response (DU-4475 [10]): 104%; normalised response (BT-474 [11]): 92.2%; normalised response (CAL-120 [12]): 102%; normalised response (CAL-51 [13]): 80.2%; normalised response (MDA-MB-453 [14]): 115%; normalised response (CAL-85-1 [15]): 110%; normalised response (MDA-MB-231 [16]): 103%; normalised response (MDA-MB-436 [17]): 97.9%; normalised response (HCC1599 [18]): 94.2%
COc1cc(Nc2ncc3c(n2)-c2ccc(Cl)cc2C(c2c(F)cccc2OC)=NC3)ccc1C(=O)O [MLN8237] (1 nM),–,–,101%,105%,102%,96.3%,88.2%,103%,88.5%,99.4%,115%,101%,109%,92.1%,99.7%,93.8%,95.7%,109%,119%,114%,–
COc1cc(Nc2ncc3c(n2)-c2ccc(Cl)cc2C(c2c(F)cccc2OC)=NC3)ccc1C(=O)O [MLN8237] (10000 nM),–,–,–,–,–,–,–,–,–,–,–,–,–,–,–,–,–,–,–,–,normalised viability (CAL-148 [37]): 26.2%; normalised viability (HDQ-P1 [38]): 40.9%; normalised viability (DU-4475 [39]): 21.9%; normalised viability (CAL-51 [40]): 18.8%; normalised viability (MDA-MB-453 [41]): 44.8%; normalised viability (CAL-85-1 [42]): 56.3%
CO[C@H]1C[C@@H]2CC[C@@H](C)[C@@](O)(O2)C(=O)C(=O)N2CCCC[C@H]2C(=O)O[C@H]([C@H](C)C[C@@H]2CC[C@@H](OC(=O)C(C)(CO)CO)[C@H](OC)C2)CC(=O)[C@H](C)/C=C(\C)[C@@H](O)[C@@H](OC)C(=O)[C@H](C)C[C@H](C)/C=C/C=C/C=C/1C [Temsirolimus] (0.1 nM),91.1%,88.6%,55.3%,93.5%,96.1%,94.1%,105%,92.6%,77.8%,86.6%,92.8%,99.3%,95%,86.7%,98.3%,88.1%,79.7%,83.6%,92.4%,99.8%,normalised response (MCF-10A): 104%; normalised response (CAL-148 [3]): 99.7%; normalised response (HCC1143 [4]): 102%; normalised response (HDQ-P1 [5]): 101%; normalised response (MFM-223 [7]): 103%; normalised response (Hs578T [8]): 88.2%; normalised response (BT-549 [9]): 86.6%; normalised response (DU-4475 [10]): 104%; normalised response (BT-474 [11]): 104%; normalised response (CAL-120 [12]): 97.5%; normalised response (CAL-51 [13]): 106%; normalised response (MDA-MB-453 [14]): 104%; normalised response (CAL-85-1 [15]): 100%; normalised response (MDA-MB-231 [16]): 101%; normalised response (MDA-MB-436 [17]): 103%; normalised response (HCC1599 [18]): 89.3%
CO[C@H]1C[C@@H]2CC[C@@H](C)[C@@](O)(O2)C(=O)C(=O)N2CCCC[C@H]2C(=O)O[C@H]([C@H](C)C[C@@H]2CC[C@@H](OC(=O)C(C)(CO)CO)[C@H](OC)C2)CC(=O)[C@H](C)/C=C(\C)[C@@H](O)[C@@H](OC)C(=O)[C@H](C)C[C@H](C)/C=C/C=C/C=C/1C [Temsirolimus] (1000 nM),–,–,–,–,–,–,–,–,–,–,–,–,–,–,–,–,–,–,–,–,normalised viability (CAL-148 [37]): 36.1%; normalised viability (HDQ-P1 [38]): 80.6%; normalised viability (DU-4475 [39]): 49.6%; normalised viability (CAL-51 [40]): 32.6%; normalised viability (MDA-MB-453 [41]): 22.8%; normalised viability (CAL-85-1 [42]): 57.7%

# Source: the supplement of paper PMC4862054
